Results: patent publication US11384060B2, “Amide compounds and use thereof” (ALPHALA CO., LTD., priority 2017, dated 2022)
Like-named read-outs stand apart in the source and are kept apart here.

Tests used:
[1] = target: T1, glucagon receptor (GCGR) (Homo sapiens, UniProt P47871); assay: I125-glucagon binding assay (competition, GCGR membrane fractions)
T1 construct: expressed in transfected cells; host or cells: CHO-K1 cells overexpressing GCGR (membrane fractions)
Summary of the method: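 Competition of 0.0625 nM (final) I^125-glucagon for 30 min at 25° C, after 5 min compound preincubation, using 7.5 μg/well GCGR-overexpressing CHO-K1 membranes in 50 mM Tris pH 7.4, 0.5% BSA. Filtration onto PEI-coated GF/B, micro-beta counting, and non-linear regression gave IC50.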

[2] = target: T2, glucagon receptor (GCGR) overexpressed CHO-K1 cells or human primary hepatocytes (Homo sapiens, UniProt P47871); assay: Glucagon cAMP inhibition assay (Cisbio cAMP Dynamic 2 HTRF); assay type: cell-based
T2 construct: expressed in transfected cells; host or cells: GCGR overexpressed CHO-K1 cells or human primary hepatocytes (endogenous receptor)
Summary of the method: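 HTRF read-out of glucagon-induced cAMP, with IC50 from non-linear regression. Cells (GCGR CHO-K1 or human primary hepatocytes) in HBSS/0.1% BSA/800 nM IBMX took compound dilutions for 30 min (final DMSO 1%), then EC50-level glucagon for 30 min at room temperature, then a 60 min lysis/detection step.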

[3] = competition with I125-glucagon 0.0625 nM, membrane fractions of GCGR overexpressed CHO-K1 cells
[4] = inhibition of glucagon (EC50 concentration) induced cAMP production

T2 sequence (P47871 26-477): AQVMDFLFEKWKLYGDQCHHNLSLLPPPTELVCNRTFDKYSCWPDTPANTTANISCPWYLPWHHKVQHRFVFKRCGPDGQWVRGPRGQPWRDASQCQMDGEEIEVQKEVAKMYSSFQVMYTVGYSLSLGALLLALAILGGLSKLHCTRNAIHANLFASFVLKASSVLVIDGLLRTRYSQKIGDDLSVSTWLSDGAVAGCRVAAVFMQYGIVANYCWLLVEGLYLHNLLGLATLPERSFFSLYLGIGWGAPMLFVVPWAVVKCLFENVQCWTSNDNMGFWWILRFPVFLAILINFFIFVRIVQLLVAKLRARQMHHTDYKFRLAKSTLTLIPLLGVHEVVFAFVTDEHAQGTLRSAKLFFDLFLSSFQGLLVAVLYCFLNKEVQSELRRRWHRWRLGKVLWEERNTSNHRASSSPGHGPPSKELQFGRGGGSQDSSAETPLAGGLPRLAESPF
T1 sequence (P47871 26-477): as above

Compound | IC50 [1, 3] [µM] | IC50 cAMP [2, 4] [µM] | IC50 [1] [µM] | IC50 cAMP [2] [µM] | other results
CC[C@H](C)[C@@H](COc1ccc(-c2nnc(-c3ccccc3)o2)cc1)Nc1ccc(C(=O)NCCC(=O)O)cc1 [Compound 1-46, 3-(4-(((2S,3S)-3-methyl-1-(4-(5-phenyl-1,3,4-oxadiazol-2-yl)phenoxy)pentan-2-yl)amino)benzamido)propanoic Acid] | 0.601 | 5.441 | – | – | –
CC[C@H](C)[C@@H](COc1cc(C)c(-c2ccc(Cl)cc2Cl)c(C)c1)Nc1ccc(C(=O)NCCC(=O)O)cc1 [Compound 2-9, 3-(4-(((2S,3S)-1-((2′,4′-dichloro-2,6-dimethyl-[1,1′-biphenyl]-4-yl)oxy)-3-methylpentan-2-yl)amino)benzamido)propanoic Acid] | 0.06 | 0.4476 | – | – | –
CC(C)[C@@H](COc1ccc(-c2cc3ccccc3o2)cc1)Nc1cnc(C(=O)NCCC(=O)O)cn1 [Compound 9-1, (S)-3-(5-((1-(4-(benzofuran-2-yl)phenoxy)-3-methylbutan-2-yl)amino)pyrazino-2-carboxamido)propanoic Acid] | 0.125 | 0.3861 | – | – | –
CC[C@H](C)[C@@H](COc1cc(C)c(-c2ccc(C(F)(F)F)cc2)c(C)c1)Nc1ccc(C(=O)NCCC(=O)O)cc1 [Compound 2-10, 3-(4-(((2S,3S)-1-((2,6-dimethyl-4′-(trifluoromethyl)-[1,1′-biphenyl]-4-yl)oxy)-3-methylpentan-2-yl)amino)benzamido)propanoic Acid] | 0.09 | 0.2414 | – | – | –
CC(C)[C@@H](COc1ccc(-c2ccc(C(F)(F)F)cc2)cc1)Nc1ccc(C(=O)NCCC(=O)O)cn1 [Compound 4-1, (S)-3-(6-((3-methyl-1-((4′-(trifluoromethyl)-[1,1′-biphenyl]-4-yl)oxy)butan-2-yl)amino)nicotinamido)propanoic Acid] | 0.369 | 0.6269 | – | – | –
CC[C@H](C)[C@@H](COc1ccc(-c2nnc(C(C)(C)C)o2)cc1)Nc1ccc(C(=O)NCCC(=O)O)cn1 [Compound 4-4, 3-(6-(((2S,3S)-1-(4-(5-(tert-butyl)-1,3,4-oxadiazol-2-yl)phenoxy)-3-methylpentan-2-yl)amino)nicotinamido)propanoic Acid] | 2.39 | >30 | – | – | –
CC[C@H](C)[C@@H](COc1ccc(-c2cc3ccccc3o2)c(Cl)c1)Nc1ccc(C(=O)NCc2nnn[nH]2)cc1 [Compound 3-1, N-((1H-tetrazol-5-yl)methyl)-4-(((2S,3S)-1-(4-(benzofuran-2-yl)-3-chlorophenoxy)-3-methylpentan-2-yl)amino)benzamide] | 0.217 | 1.822 | – | – | –
COc1cc(OC[C@@H](Nc2ccc(C(=O)NCCC(=O)O)cc2)C(C)C)ccc1-c1ccc(Cl)cc1Cl [Compound 13-7, (S)-3-(4-((1-((2′,4′-dichloro-2-methoxy-[1,1′-biphenyl]-4-yl)oxy)-3-methylbutan-2-yl)amino)benzamido)propanoic Acid] | 0.095 | 0.139 | – | – | –
CC[C@H](C)[C@@H](COc1ccc(-c2ccc(C(F)(F)F)cc2Cl)nc1)Nc1ccc(C(=O)NCCC(=O)O)cc1 [Compound 10-16, 3-(4-(((2S,3S)-1-((6-(2-chloro-4-(trifluoromethyl)phenyl)pyridin-3-yl)oxy)-3-methylpentan-2-yl)amino)benzamido)propanoic Acid] | 0.141 | 0.272 | – | – | –
CC(C)C[C@@H](COc1ccc(-c2ccc(Cl)cc2Cl)nc1)Nc1ccc(C(=O)NCCC(=O)O)cc1 [Compound 10-19, (S)-3-(4-((1-((6-(2,4-dichlorophenyl)pyridin-3-yl)oxy)-4-methylpentan-2-yl)amino)benzamido)propanoic Acid] | 0.301 | 1.064 | – | – | –
CCCC[C@@H](COc1ccc(-c2ccc(Cl)cc2Cl)cc1)Nc1ccc(C(=O)NCCC(=O)O)cc1 [Compound 1-17, (S)-3-(4-((1-((2′,4′-dichloro-[1,1′-biphenyl]-4-yl)oxy)hexan-2-yl)amino)benzamido)propanoic Acid] | 0.034 | 0.8644 | – | – | –
CCCC[C@@H](COc1ccc(-c2ccc(C(F)(F)F)cc2Cl)nc1)Nc1ccc(C(=O)NCCC(=O)O)cc1 [Compound 10-11, (S)-3-(4-((1-((6-(2-chloro-4-(trifluoromethyl)phenyl)pyridin-3-yl)oxy)hexan-2-yl)amino)benzamido)propanoic Acid] | 0.27 | 0.5374 | – | – | –
Cc1cc(OC[C@@H](Cc2ccccc2)Nc2ccc(C(=O)NCCC(=O)O)cc2)cc(C)c1-c1ccc(C(F)(F)F)cc1 [Compound 2-1, (R)-3-(4-((1-((2,6-dimethyl-4′-(trifluoromethyl)-[1,1′-biphenyl]-4-yl)oxy)-3-phenylpropan-2-yl)amino)benzamido)propanoic Acid] | 0.266 | 0.3229 | – | – | –
CC(C)[C@@H](COc1ccc(-c2cc(Cl)cc(Cl)c2)nc1)Nc1ccc(C(=O)NCCC(=O)O)cc1 [Compound 10-5, (S)-3-(4-((1-((6-(3,5-dichlorophenyl)pyridin-3-yl)oxy)-3-methylbutan-2-yl)amino)benzamido)propenoic Acid] | 0.441 | 3.69 | – | – | –

More lines, main results first:

IC50 [1, 3] [µM] | IC50 cAMP [2, 4] [µM] | IC50 [1] [µM] | IC50 cAMP [2] [µM] | Compound | other results
– | – | 0.168 | 9.529 | CCOC(=O)CCNC(=O)c1ccc(N[C@H](Cc2ccc(-c3cc4ccccc4o3)cc2)C(=O)Nc2cc(F)cc(F)c2)cc1 [Compound 24-23, Ethyl (R)-3-(4-((3-(4-(benzofuran-2-yl)phenyl)-1-((3,5-difluorophenyl)amino)-1-oxopropan-2-yl)amino)benzamido)propanoate] | –
– | – | 2.51 | 0.181 | CCOC(=O)CCNC(=O)c1ccc(N[C@@H](CC(C)C)C(=O)Nc2ccc(-c3cc4ccccc4o3)cc2)cc1 [Compound 23-6, Ethyl (S)-3-(4-((1-((4-(benzofuran-2-yl)phenyl)amino)-4-methyl-1-oxopentan-2-yl)amino)benzamido)propanoate] | –
– | – | 0.621 | 0.74 | CCCOC[C@H](Cc1ccc(-c2ccc(C(F)(F)F)cc2)cc1)Nc1ccc(C(=O)NCCC(=O)O)cc1 [Compound 19-13, (S)-3-(4-((1-propoxy-3-(4′-(trifluoromethyl)-[1,1′-biphenyl]-4-yl)propan-2-yl)amino)benzamido)propanoic Acid] | –
– | – | 0.626 | 3.241 | CC(C)(C)c1ccc(-c2ccc(OC[C@@H](Nc3ccc(C(=O)NCCC(=O)O)cc3)c3ccccc3)nc2)cc1 [Compound 15-4] | –
– | – | 0.376 | 0.294 | CC[C@H](C)[C@@H](COc1ccc(-c2ccc(C(F)(F)F)cc2)cn1)Nc1ccc(C(=O)NCCC(=O)O)cc1 [Compound 15-12, 3-(4-(((2S,3S)-3-methyl-1-((5-(4-(trifluoromethyl)phenyl)pyridin-2-yl)oxy)pentan-2-yl)amino)benzamido)propanoic Acid] | –
– | – | – | 5.4 | CCOC(=O)CCNC(=O)c1ccc(N[C@@H](Cc2ccc3ccccc3c2)C(=O)Nc2ccc(C(C)(C)C)cc2)cc1 [Compound 23-19, Ethyl (S)-3-(4-((1-((4-(tert-butyl)phenyl)amino)-3-(naphthalen-2-yl)-1-oxopropan-2-yl)amino)benzamido)propanoate] | IC50 ([1]; uM): > 10 µM
– | – | 0.33 | 0.0815 | CC(C)[C@@H](COc1ccc(-c2ccc(C(F)(F)F)cc2Cl)cn1)Nc1ccc(C(=O)NCCC(=O)O)cc1 [Compound 15-9, (S)-3-(4-((1-((5-(2-chloro-4-(trifluoromethyl)phenyl)pyridin-2-yl)oxy)-3-methylbutan-2-yl)amino)benzamido)propanoic Acid] | –
– | – | 1.31 | >30 | CC(C)C[C@@H](COc1ccc(-c2ccc(C(F)(F)F)cc2Cl)cn1)Nc1ccc(C(=O)NCCS(=O)(=O)O)cc1 [Compound 15-18] | –
– | – | 0.087 | 3.6 | CC(C)C[C@H](Nc1ccc(C(=O)NCCC(=O)O)cc1)C(=O)Nc1ccc(-c2ccc(Cl)cc2Cl)cc1 [Compound 23-1, (S)-3-(4-((1-((2′,4′-dichloro-[1,1′-biphenyl]-4-yl)amino)-4-methyl-1-oxopentan-2-yl)amino)benzamido)propanoic Acid] | –
– | – | 1.03 | – | CC[C@H](C)[C@H](Nc1ccc(C(=O)NCCC(=O)O)cc1)C(=O)Nc1ccc2cc(OC)ccc2c1 [Compound 24-8, 3-(4-(((2S,3S)-1-((6-methoxynaphthalen-2-yl)amino)-3-methyl-1-oxopentan-2-yl)amino)benzamido)propanoic Acid] | IC50 cAMP ([2]; uM): >10 µM
– | – | 0.152 | 0.877 | CC(C)C[C@H](Cc1ccc(-c2ccc(C(C)(C)C)cc2)cc1)Nc1ccc(C(=O)NCCC(=O)O)cc1 [Compound 19-8, (R)-3-(4-((1-(4′-(tert-butyl)-[1,1′-biphenyl]-4-yl)-4-methylpentan-2-yl)amino)benzamido)propanoic Acid] | –
0.139 | 0.716 | – | – | CC(C)C[C@@H](COc1ccc(-c2ccc(Cl)cc2Cl)nn1)Nc1ccc(C(=O)NCCC(=O)O)cc1 [Compound 17-2, (S)-3-(4-((1-((6-(2,4-dichlorophenyl)pyridazin-3-yl)oxy)-4-methylpentan-2-yl)amino)benzamido)propanoic Acid] | –
0.528 | 0.2393 | – | – | CC(C)[C@@H](COc1ccc(-c2cc3ccccc3o2)cn1)Nc1ccc(C(=O)NCCC(=O)O)cn1 [Compound 16-2, (S)-3-(6-((1-((5-(benzofuran-2-yl)pyridin-2-yl)oxy)-3-methylbutan-2-yl)amino)nicotinamido)propanoic Acid] | –
